For one assay, the target named is D(3) dopamine receptor (Homo sapiens, UniProt P35462). Nature of the assay: Binding affinity towards human Dopamine receptor D3 expressed in CHO cells by [125I]iodosulpiride displacement. Type of assay: cell-based.
Another assay addresses D(2) dopamine receptor (Homo sapiens, UniProt P14416). The experiment in a line: Binding affinity towards human Dopamine receptor D2 expressed in CHO cells by [125I]iodosulpiride displacement. Type of assay: cell-based.
Assay [1] concerns the target Dopamine receptors; D2 & D3 (Homo sapiens) (UniProt P14416+P35462). Nature of the assay: Selectivity at D3 compared to D2 receptors. Type of assay: protein assay.

pKi: −log10 of the molar value.

One may read the pKi as the Ki on a negative log10 scale, so that one unit is a factor of ten.

D(3) dopamine receptor, sequence (P35462 whole entry): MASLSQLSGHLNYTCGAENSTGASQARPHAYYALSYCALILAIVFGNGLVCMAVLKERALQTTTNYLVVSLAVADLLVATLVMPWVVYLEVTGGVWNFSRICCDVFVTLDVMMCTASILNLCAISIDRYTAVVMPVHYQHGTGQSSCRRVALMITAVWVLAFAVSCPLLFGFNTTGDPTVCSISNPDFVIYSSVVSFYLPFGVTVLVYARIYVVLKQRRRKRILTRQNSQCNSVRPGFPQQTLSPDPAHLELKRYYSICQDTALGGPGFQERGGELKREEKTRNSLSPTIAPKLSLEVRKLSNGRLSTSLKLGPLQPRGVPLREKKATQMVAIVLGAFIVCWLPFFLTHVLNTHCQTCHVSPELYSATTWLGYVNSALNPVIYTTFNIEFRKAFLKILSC
D(2) dopamine receptor, sequence (P14416 whole entry): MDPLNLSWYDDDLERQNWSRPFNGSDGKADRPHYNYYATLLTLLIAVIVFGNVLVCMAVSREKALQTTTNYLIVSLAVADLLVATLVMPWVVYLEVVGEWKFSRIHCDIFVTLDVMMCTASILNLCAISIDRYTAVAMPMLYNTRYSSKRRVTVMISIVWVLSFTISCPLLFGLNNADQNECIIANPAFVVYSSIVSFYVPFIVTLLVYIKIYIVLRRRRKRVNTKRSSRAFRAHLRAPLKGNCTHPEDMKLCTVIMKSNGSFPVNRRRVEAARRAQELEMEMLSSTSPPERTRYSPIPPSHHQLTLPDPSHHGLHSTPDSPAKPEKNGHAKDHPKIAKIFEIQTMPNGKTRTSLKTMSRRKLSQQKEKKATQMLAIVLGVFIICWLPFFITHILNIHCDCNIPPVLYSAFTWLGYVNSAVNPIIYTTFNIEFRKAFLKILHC

For the molecule `CCN1CCCC1CNC(=O)c1cc(S(=O)(=O)CC)ccc1OC` (stereo not given) [SULTOPRIDE], the pKi at D(3) dopamine receptor and on D(2) dopamine receptor was 8.20 each time.
For the molecule `CCS(=O)(=O)c1ccc(OC)c(-c2ccc(CN3CCCC3c3ccccc3)[nH]2)c1` (stereo not given), the negative-log Ki (pKi) at D(3) dopamine receptor is 9.00; on D(2) dopamine receptor, 7.80. For the same molecule, in assay [1], the Selectivity amounted to 15.
The corresponding values for `CCS(=O)(=O)c1ccc(OC)c(-c2ccc(CN3CCCCCCC3c3ccccc3)[nH]2)c1` (stereo not given) are 7.70, 6.50 and 15.
The matching figures for `CCS(=O)(=O)c1ccc(OC)c(-c2ccc(CN3CCCCCC3)[nH]2)c1`: 7.80, 6.80 and 10.
Take `CCS(=O)(=O)c1ccc(OC)c(-c2ccc(C(C)N3CCCC3)[nH]2)c1` (stereo not given): the pKi was 7.70 on D(3) dopamine receptor and 6.40 at D(2) dopamine receptor. The Selectivity in assay [1] amounted to 20.
As for `CCS(=O)(=O)c1ccc(OC)c(-c2ccc(CN3CCOCC3)[nH]2)c1`, the figures for the pKi at D(3) dopamine receptor and at D(2) dopamine receptor were 6.10 and 5.50, respectively. The same molecule displayed a Selectivity in assay [1] of 4.
`CCN(Cc1ccccc1)Cc1ccc(-c2cc(S(=O)(=O)CC)ccc2OC)[nH]1`: the pKi at D(3) dopamine receptor is 9.50; at D(2) dopamine receptor, 9.10. The same molecule had a Selectivity in assay [1] of 3.
Regarding `CCS(=O)(=O)c1ccc(OC)c(-c2ccc(C(C)N3CCCCCC3)[nH]2)c1` (stereo not given), the pKi on D(3) dopamine receptor was 7.70; at D(2) dopamine receptor it was 7.10. For the same molecule, the Selectivity in assay [1] stood at 4.
In the case of `CCS(=O)(=O)c1ccc(OC)c(-c2ccc(CN3CCCCCC3c3ccccc3)[nH]2)c1` (stereo not given), the figures for the negative logarithm of the Ki (pKi) on D(3) dopamine receptor and on D(2) dopamine receptor were 8.90 and 7.40, respectively. In assay [1], this molecule yielded a Selectivity of 30.
Take `CCN(CC)Cc1ccc(-c2cc(S(=O)(=O)CC)ccc2OC)[nH]1`: the negative-log Ki (pKi) was 7.40 at D(3) dopamine receptor and 6.50 on D(2) dopamine receptor. For the same molecule, the Selectivity in assay [1] came to 8.
The matching figures for `CCS(=O)(=O)c1ccc(OC)c(-c2ccc(C(C)N3CCCCC3)[nH]2)c1` (stereo not given): 8.00, 6.50 and 30.
Consider `CCS(=O)(=O)c1ccc(OC)c(-c2ccc(CN3CCCC3)[nH]2)c1`, for which the values for the pKi on D(3) dopamine receptor and at D(2) dopamine receptor were 7.20 and 6.60, respectively. Also, the Selectivity in assay [1] came to 4.
In the case of `CCS(=O)(=O)c1ccc(OC)c(-c2ccc(CN3CCCCC3)[nH]2)c1`, the results for the negative-log Ki (pKi) on D(3) dopamine receptor and at D(2) dopamine receptor were 7.60 and 6.80, respectively. In assay [1], this molecule yielded a Selectivity of 6.
As for `CCS(=O)(=O)c1ccc(OC)c(-c2ccc(CN3CCCCC3c3ccccc3)[nH]2)c1` (stereo not given), the pKi at D(3) dopamine receptor was 8.90; on D(2) dopamine receptor it was 7.90. The Selectivity in assay [1] turned out to be 10.
Turning to `CCN1CCCCCC1c1ccc(-c2cc(S(=O)(=O)CC)ccc2OC)[nH]1` (stereo not given), the negative-log Ki (pKi) at D(3) dopamine receptor was 8.70; at D(2) dopamine receptor, 8.10. This molecule also came in with a Selectivity in assay [1] of 4.
Regarding `CCN1CCCC1c1ccc(-c2cc(S(=O)(=O)CC)ccc2OC)[nH]1` (stereo not given), the pKi on D(3) dopamine receptor was 8.30; at D(2) dopamine receptor, 7.60. This molecule also registered a Selectivity in assay [1] of 5.
For `CCN1CCCCC1c1ccc(-c2cc(S(=O)(=O)CC)ccc2OC)[nH]1` (stereo not given), the negative logarithm of the Ki (pKi) at D(3) dopamine receptor is 8.70; on D(2) dopamine receptor, 8.10. The Selectivity in assay [1] came out at 4.

These data come from ChEMBL document CHEMBL1152020, “Novel 2,5-disubstituted-1H-pyrroles with high affinity for the dopamine D3 receptor” (Bioorg Med Chem Lett, 1996).
